# Assay results from patent US20080025972A1, “Treating sex steriod responsive disorders” (priority 2006, published 2008).
# Key:
# prostate cancer = test: Treatment of patients with prostate cancer (Working Examples); type: in vivo, human
# [1] = system: PSA protein expression in LNCaP cells; test: PSA protein expression in LNCaP cells (immunoblot); type: cell-based; conditions: nitric oxide synthesis inhibited; DHT 10 nmol/L 24 hours
# Method: The experiments of Background Example 4 were repeated but instead of determining androgen receptor activation, PSA level was measured by PSA protein expression in LNCaP cells. LNCaP cells were incubated in phenol red-free RPMI cell culture medium containing 5% charcoal-stripped fetal bovine serum (CSS) for 48 hours and then treated with dihydrotestosterone (DHT) (10 nmol/L) or vehicle control (ethanol) for 24 hours. Immunoblots were conducted using anti-PSA antibodies to measure PSA protein expression. Same filters were immunoblotted using anti-actin antibodies as control to establish equal loading of proteins.
# androgen receptor = conditions: stimulated 24 hours
# Method: A luciferase reporter assay as described in Kasbohm, E. A., et al., Journal of Biological Chemistry 289,11583-11589 (2005), was used to detect androgen receptor activation.
# As a control, the following was carried out. Androgen receptor in the form of prostate cancer cells was incubated with androgen under the following conditions.
# Cells were seeded in 100-mm dishes and transfected at 70% confluence using DMRIE-C Reagent (Invitrogen). Transfections were carried out with cDNAs encoding the probasin or ARR2 luciferase (1 μg) and SV40-Renilla luciferase reporter plasmid (Promega) (10 ng) together with empty vector or the indicated gene of interest using a total of 6 μg of DNA/plate. At the end of transfection, cells were equally divided into 6-well plates and allowed to attach. The culture medium was replaced after 24 hours with starvation medium (phenol red-free RPMI 1640 cell culture medium) containing 5% charcoal-stripped fetal bovine serum, 1% penicillin/streptomycin, and 10 mM HEPES buffer, pH 7.5), and identical cell populations, in duplicate, were stimulated with androgen or vehicle for an additional 24 hours. Luciferase activities in cell lysates were measured using the Dual Luciferase assay system (Promega; Madison, Wis.) and were normalized by the Renilla activities and protein concentrations of the samples.
# LNCaP cells = conditions: 5-10 nmol/L, 48 hours, wild type cells
# Method: (§1) Cell proliferation was determined in cellular assays carried out as follows:
# (§2) LNCaP cells (obtained from ATCC) and seeded at 2.5×10^4/well were incubated in charcoal-stripped serum for 24-48 hours prior to stimulation with DHT (5-10 nmole/L) for an additional 48 hours. The number of viable cells (that exclude trypan blue) was counted using a light microscope and a hemocytometer.
# [2] = system: e-NOS overexpressing prostate cancer cells; conditions: 5-10 nmol/L
# Method: as §1, §2
# breast cancer = test: Treatment of patient with breast cancer (Working Example X); type: in vivo, human; conditions: person, 40 mg PO BID, over 6 months
# [3] = biological target: T1, androgen receptor protein (Homo sapiens, UniProt P10275); test: S-nitrosylation of purified androgen receptor, biotin switch assay; type: biochemical; conditions: anaerobic conditions; GSH as control
# T1 construct: purchased Cambridge Bioscience, England
# T1 sequence (P10275 1-920): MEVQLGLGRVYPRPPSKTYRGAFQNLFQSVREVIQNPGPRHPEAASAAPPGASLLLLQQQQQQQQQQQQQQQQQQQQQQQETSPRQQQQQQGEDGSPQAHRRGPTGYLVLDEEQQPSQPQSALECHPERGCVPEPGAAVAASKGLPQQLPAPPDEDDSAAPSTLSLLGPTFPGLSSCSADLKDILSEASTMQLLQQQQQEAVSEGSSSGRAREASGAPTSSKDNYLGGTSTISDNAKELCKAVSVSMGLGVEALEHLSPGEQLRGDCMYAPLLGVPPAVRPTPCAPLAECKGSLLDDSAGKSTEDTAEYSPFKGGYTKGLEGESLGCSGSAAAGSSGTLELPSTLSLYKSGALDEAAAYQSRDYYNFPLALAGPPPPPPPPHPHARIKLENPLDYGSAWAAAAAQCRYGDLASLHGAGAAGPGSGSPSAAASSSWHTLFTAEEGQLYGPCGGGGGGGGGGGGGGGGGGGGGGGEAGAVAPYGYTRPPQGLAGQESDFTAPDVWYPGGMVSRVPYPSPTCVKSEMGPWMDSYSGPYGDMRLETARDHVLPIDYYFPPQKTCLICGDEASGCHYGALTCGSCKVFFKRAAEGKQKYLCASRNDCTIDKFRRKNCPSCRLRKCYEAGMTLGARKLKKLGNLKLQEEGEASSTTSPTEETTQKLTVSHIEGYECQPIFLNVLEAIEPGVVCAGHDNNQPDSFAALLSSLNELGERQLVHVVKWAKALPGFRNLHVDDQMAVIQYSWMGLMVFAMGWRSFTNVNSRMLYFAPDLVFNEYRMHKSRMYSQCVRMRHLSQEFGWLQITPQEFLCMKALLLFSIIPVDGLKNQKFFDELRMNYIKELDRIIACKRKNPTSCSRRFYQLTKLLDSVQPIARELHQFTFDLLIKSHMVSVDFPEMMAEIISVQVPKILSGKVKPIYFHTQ
# From the text: Purified androgen receptor protein (obtained from Cambridge Bioscience, England) was exposed to nitric oxide by means of contact with nitrosoglutathione (GSNO) under anaerobic conditions. Glutathione (GSH) was used as a control. […] Cell Biol 3, 193-197 (2001).
smiles,measurement,setting,value
N[C@H](CCC(=O)N[C@H](CS)C(=O)NCC(=O)O)C(=O)O [D-glutathione],PSA level drop,"prostate cancer; person, 150 mg orally 4 times/day, over 4 months",50%
COC(=O)[C@@H](N)CCCNC(=N)N[N+](=O)[O-] [L-NAME],PSA expression,[1],more PSA was expressed
"C[C@]12CCC(=O)C[C@@H]1CC[C@@H]1[C@@H]2CC[C@]2(C)[C@@H](O)CC[C@@H]12 [androgen, dihydrotestosterone]",androgen receptor activation by androgen (control case),androgen receptor,activated androgen receptor
same,cell growth,LNCaP cells,increased cell growth
same,cell growth,[2],no effect on cell growth
CCNC(=O)[C@@H]1CCCN1C(=O)[C@H](CCCNC(=N)N)NC(=O)[C@H](CC(C)C)NC(=O)[C@@H](COC(C)(C)C)NC(=O)[C@H](Cc1ccc(O)cc1)NC(=O)[C@H](CO)NC(=O)[C@H](Cc1c[nH]c2ccccc12)NC(=O)[C@H](Cc1cnc[nH]1)NC(=O)[C@@H]1CCC(=O)N1 [busaralin],disease course,"prostate cancer; person with body metastases, busaralin treatment",the disease progresses
O=[N+]([O-])O[C@H]1CO[C@H]2[C@@H]1OC[C@H]2O[N+](=O)[O-] [isosorbide dinitrate],PSA level,"prostate cancer; person, 20 mg PO BID, over 3 months",stabilizes
O=[N+]([O-])O[C@@H]1CO[C@H]2[C@@H]1OC[C@@H]2O [isosorbide mononitrate],lung metastases,breast cancer,regress
same,PSA level decline,"prostate cancer; person, 40 mg PO BID, 3 months",50%
O=[N+]([O-])OCC(CO[N+](=O)[O-])O[N+](=O)[O-] [nitroglycerin],progression of the disease measured by PSA and bony metastases,"prostate cancer; topical 0.8 mg/hour, after progression on busaralin",slows
N[C@@H](CCC(=O)N[C@@H](CSN=O)C(=O)NCC(=O)O)C(=O)O [nitrosoglutathione],S-nitrosylation of androgen receptor,[3],S-Nitrosylation of androgen receptor was detected
same,PSA level decrease,"prostate cancer; human, in vivo, po",50%
